According to patent US5439933A (priority 1993, dated 1995):
Converted amounts (≈) assume the structure as drawn. “Also recorded” adds a separate entry of the source.

Experiments:
[1] = tested on: Penicillium notatum; test: Antifungal agar dilution; format: cell-based; conditions: Penicillium chrysogenum, 48 h
Description: (§1) The new scytophycins are also useful as antifungal agents. Antimicrobial activity was determined by the agar dilution method. Tolytoxin was dissolved in 95% ethanol for addition to cooled, molten agar. Nystatin was solubilized in DMSO and diluted in distilled water. Appropriate solvent controls were also prepared. Fungal cultures were grown on Saboraud dextrose agar. Assay plates were incubated for 48 hours post-inoculation. Yeasts and filamentous fungi were incubated at 25° C.

[2] = tested on: Calonectria critalarae 1809; test: Antifungal agar dilution; format: cell-based; conditions: 48 h
Description: as §1

[3] = tested on: Phyllosticta capitalensis 689-5; test: Antifungal agar dilution; format: cell-based; conditions: Phyllosticta capitalensis, 6895, 48 h
Description: as §1

[4] = tested on: Aspergillus oryzae; test: Antifungal agar dilution; format: cell-based; conditions: 48 h
Description: as §1

[5] = tested on: Alternaria alternata 1715; test: Antifungal agar dilution; format: cell-based; conditions: Alternaria alternata, 1715, 48 h
Description: as §1

[6] = tested on: Trichophyton mentagrophytes A23; test: Antifungal agar dilution; format: cell-based; conditions: Trichophyton mentagrophytes, A23, 48 h
Description: as §1

[7] = tested on: Rhizoctonia solani 1165; test: Antifungal agar dilution; format: cell-based; conditions: Rhizoctonia solani, 1165, 48 h
Description: as §1

[8] = tested on: Bipolaris incurvata 2118; test: Antifungal agar dilution; format: cell-based; conditions: Bipolaris incurvata, 2118, 48 h
Description: as §1

[9] = tested on: Colletotrichum coccodes 1809; test: Antifungal agar dilution; format: cell-based; conditions: Colletotrichum coccodes, 1809, 48 h
Description: as §1

[10] = tested on: Murine leukemia (L1210) cells; test: Polynucleation / DNA content by flow cytometry; format: cell-based; conditions: 10 nM
Description: The following procedure employs new scytophycins to produce polynucleated mammalian cells. Murine leukemia (L1210) cells at a density of 1×10^5 cells/mL were treated with tolytoxin for periods ranging from 4 to 24 hours. Tolytoxin or the appropriate vehicle as a control was added in a volume of not more than 4.2 μL per 10 mL of cell suspension. The cell suspension was incubated at 37° C. in a humidified atmosphere of 95% air, 5% carbon dioxide. At the conclusion of the incubation, the cultures were chilled on ice and centrifuged at 200×g (gravity) for 10 minutes. The pelleted cells were fixed in 70% ethanol: 30% water for 1 hour. Aliquots of the fixed cell suspensions were washed twice with 0.01M phosphate buffered saline, pH 7.2-7.4. The cells were resuspended at approximately 1×10^6 /mL in modified Krishan's reagent (Krishan, 1975) containing 0.005% propidium iodide, ribonuclease A at 50 units/mL, 0.1% sodium citrate, and 0.3% Nonidet P-40. Following a 30 minute incubation at 4° C. the cell suspensions were passed 4 times through a 26-gauge needle before analysis on a Coulter Epics C flow cytometer, equipped with an Innova 90 argon laser tuned at 488 nm and set at 200 milliwatts. The fluorescence of 10,000 cells was used to generate the DNA histograms.

[11] = tested on: T47-D human ductal carcinoma cells; test: Cell proliferation assay (cell counts), T47-D; format: cell-based; conditions: T47D, Table 5, 72 hours
Description: (§2) Tolytoxin and the other new scytophycin compounds are potent anticancer and antifungal agents. The cytotoxicity of tolytoxin and other new scytophycin compounds was determined using a cell proliferation assay, which tested the effect of the compounds on increases in cell numbers.
(§3) Cell lines were grown in plastic dishes (Falcon) in Eagle's basal medium supplemented with 5% newborn calf serum (KB), Fisher's medium supplemented with 10% horse serum (L1210), Dulbecco's modified Eagle's medium supplemented with 5% heat-inactivated fetal calf serum (LoVo), minimal essential medium supplemented with 2% heat-inactivated chicken serum (HEp-2), RPMI-1640 supplemented with 10% heat-inactivated fetal calf serum (T-47D, COLO-201) or 20% heat-inactivated fetal calf serum (HL-60, KATO-III), or McCoy's 5A supplemented with 10% heat-inactivated fetal calf serum (HBL-100). All cell culture media were supplemented with 50 μg/ml gentamycin sulfate. The cultures were incubated at 37° C. in a humidified atmosphere containing 5% carbon dioxide.
(§4) Cultures were exposed to graded concentrations of tolytoxin and reincubated for 72 hours in the presence of tolytoxin. […] Cell numbers were determined by hemacytometer counts. The IC50 for each cell line was determined by plotting the logarithm of the tolytoxin concentration versus growth (cell number as a percentage of the control) of the treated cells.

[12] = tested on: SKVLB (multi-drug resistant subline of SKOV3); test: cells; format: cell-based, Human
Description: Human ovarian carcinoma cells (SKOV3) and a subline made multi-drug resistant by slowly increasing vinblastine in the culture medium over the course of many passages (SKVLB) were grown in Earle's basal medium (BME) containing 10% fetal calf serum. The SKVLB cells were maintained in the presence of 1 µg/mL vinblastine.
Cell proliferation was estimated by measurement of protein content of the cultured cells, as described by Skehan et al. (1990). Cells were plated into 24-well plates at approximately 10% confluency in BME and were allowed to attach and recover for at least 24 hours. The cells were then treated with the scytophycins or appropriate control for 48 hours. After the incubation, the medium was removed from each well and cells fixed by addition of 10% (w/v) trichloroacetic acid (TCA) (4° C.). The cells were incubated at 4° C. for one hour and then washed five times with water to remove TCA. The TCA-fixed cells were then stained for 30 minutes with 0.4% (w/v) sulforhodamine B prepared in 1% acetic acid. Following the staining, the cell layers were washed four times with 1% acetic acid. The cell layer was dissolved in 10 mM unbuffered tris-hydroxymethylaminomethane base. Absorbance of the solution was determined at 564 nm. Antiproliferative activity is manifested as decreased production of cellular protein.

[13] = tested on: COLO-201 human colon adenocarcinoma cells; test: Cell proliferation assay (cell counts), COLO-201; format: cell-based; conditions: Table 5, 72 hours
Description: as §2, §3, §4

[14] = Toxicity in mice, intraperitoneal; conditions: mouse, in vivo, ip, Swiss Webster mice
Description: In view of the cytotoxic effects observed with the new scytophycins, an experiment was performed to determine the toxicity level in an animal model. Various doses of tolytoxin were administered to Swiss Webster mice by the intraperitoneal route.

[15] = tested on: HBL-100 human breast cells; test: Cell proliferation assay (cell counts), HBL-100; format: cell-based; conditions: Table 5, 72 hours
Description: as §2, §3, §4

[16] = tested on: LoVo human adenocarcinoma cells; test: Cell proliferation assay (cell counts), LoVo; format: cell-based; conditions: 72 h
Description: as §2, §3
Cultures were exposed to graded concentrations of tolytoxin and reincubated for 72 hours in the presence of tolytoxin. Three dishes were used for each treatment. Cell numbers were determined by hemacytometer counts. The IC50 for each cell line was determined by plotting the logarithm of the tolytoxin concentration versus growth (cell number as a percentage of the control) of the treated cells.
The other new scytophycin compounds are also potent cytotoxins. For example, the IC50 of the scytophycins against KB human epidermoid carcinoma, LoVo human adenocarcinoma, and L1210 murine leukemia were determined using the cell proliferation assay described for tolytoxin.

[17] = tested on: Human epidermoid carcinoma (KB) cells; test: Cell shape and nuclear protrusion by microscopy; format: cell-based
Description: In the following procedure new scytophycins were employed to cause nuclear protrusion in mammalian cells. Human epidermoid carcinoma (KB) cells were plated on plastic tissue-culture dishes in Dulbecco's modified Eagle's medium at 1×10^5 cells per 60 mm dish. The cell cultures were incubated overnight at 37° C. in a humidified atmosphere of 95% air and 5% carbon dioxide to allow the cells to settle and become attached. Following the incubation, tolytoxin or the appropriate vehicle control was added in a volume of not more than 35 μL per 5 mL of culture medium. After an additional incubation period ranging from 1 to 4 hours, the culture medium was removed and the cell layer washed twice with phosphate-buffered saline (PBS), pH 7.2. The washed cell layer was stained for 15 minutes with 0.01% acridine orange in PBS. Following staining, the cell suspension was washed for 15 minutes with two changes of PBS to remove unbound stain and photographed on a Zeiss IM-35 photomicroscope equipped with brightfield and epifluorescence optics.

Compound: COC1CC2C=CCC(CC(OC)C3(CO3)C(OC)CC(OC)C(C)C(C(C)C(O)C(C)CCC(=O)C(C)C(OC)C(C)/C=C/N(C)C=O)OC(=O)/C=C/C(C)=C/C1O)O2 (stereo not drawn) [Tolytoxin, 6-hydroxy-7-O-methylscytophycin B]
- MIC [1]: 0.25 nM (≈ 0.213 ng/mL)
- MIC [2]: 2 nM (≈ 1.7 ng/mL)
- MIC [3]: 0.5 nM (≈ 0.425 ng/mL)
- MIC [4]: 0.5 nM (≈ 0.425 ng/mL)
- MIC [5]: 4 nM (≈ 3.4 ng/mL)
- MIC [6]: 8 nM (≈ 6.8 ng/mL)
- MIC [7]: 0.25 nM (≈ 0.213 ng/mL)
- MIC [8]: 2 nM (≈ 1.7 ng/mL)
- MIC [9]: 4 nM (≈ 3.4 ng/mL)
- multinucleated cells observed by microscopy ([10]; 4 to 24 hours): increasing numbers of multinucleated cells
- proportion of cells in the G2 M phase ([10]; 4 to 24 hours): gradual increase
- fraction of the cells with DNA contents greater than 4C ([10]; by 16 hours): approximately 1/3
- IC50 [11]: 4.9 nM
- IC50 ([12]; Homo sapiens, SKVLB, 48 h, read-out: IC50 SKVLB): 25 nM
- Fold-Resistance ([12]; Table 7, SKVLB vs SKOV3, 2880 min): 1
- IC50 [13]: 0.52 nM
- LD50 [14]: ~1.5 mg/kg
- IC50 [15]: 2.4 nM
- IC50 [16]: 8.4 nM
- cell shape and surface appearance ([17]; 4 nM, 1 hour): fibroblastoid cellular shape and the appearance of blebs or zeioses on the cell surfaces; also recorded: the cells have lost their normal extended fibroblastoid shape, and the appearance of blebs or zeioses on the cell surface is apparent
- migration of cell nucleus ([17]; 8nM, 4 hours): the cell nuclei have migrated out of their respective cell bodies; also recorded: The cell nucleus has migrated outside the body of the cell and now occupies one of the zeiotic processes
